Measured values as given in patent US20150051176A1, “ARYL DERIVATIVES AS SPHINGOSINE-1 PHOSPHATE RECEPTORS MODULATORS” (Allergan, Inc., priority 2013, published 2015).

biological target: T1, human S1P1 receptor (Homo sapiens, UniProt P21453); assay: GTP γ35S binding assay for S1P1 activity; format: biochemical; details: membranes of cells stably expressing the S1P1 receptor, test concentrations 0.08 to 5,000 nM
T1 construct: expressed in transfected cells; membranes used
Method: Compounds were synthesized and tested for S1P1 activity using the GTP γ^35S binding assay. These compounds may be assessed for their ability to activate or block activation of the human S1P1 receptor in cells stably expressing the S1P1 receptor.
GTP γ^35S binding was measured in the medium containing (mM) HEPES 25, pH 7.4, MgCl2 10, NaCl 100, dithiothreitol 0.5, digitonin 0.003%, 0.2 nM GTP γ^35S, and 5 μg membrane protein in a volume of 150 μl. Test compounds were included in the concentration range from 0.08 to 5,000 nM unless indicated otherwise. Membranes were incubated with 100 μM 5′-adenylylimidodiphosphate for 30 min, and subsequently with 10 μM GDP for 10 min on ice. Drug solutions and membrane were mixed, and then reactions were initiated by adding GTP γ^35S and continued for 30 min at 25° C. Reaction mixtures were filtered over Whatman GF/B filters under vacuum, and washed three times with 3 mL of ice-cold buffer (HEPES 25, pH7.4, MgCl2 10 and NaCl 100). Filters were dried and mixed with scintillant, and counted for ^35S activity using a β-counter. Agonist-induced GTP γ^35S binding was obtained by subtracting that in the absence of agonist. Binding data were analyzed using a non-linear regression method. In case of antagonist assay, the reaction mixture contained 10 nM […] in the presence of test antagonist at concentrations ranging from 0.08 to 5000 nM.

T1 sequence (P21453 whole entry): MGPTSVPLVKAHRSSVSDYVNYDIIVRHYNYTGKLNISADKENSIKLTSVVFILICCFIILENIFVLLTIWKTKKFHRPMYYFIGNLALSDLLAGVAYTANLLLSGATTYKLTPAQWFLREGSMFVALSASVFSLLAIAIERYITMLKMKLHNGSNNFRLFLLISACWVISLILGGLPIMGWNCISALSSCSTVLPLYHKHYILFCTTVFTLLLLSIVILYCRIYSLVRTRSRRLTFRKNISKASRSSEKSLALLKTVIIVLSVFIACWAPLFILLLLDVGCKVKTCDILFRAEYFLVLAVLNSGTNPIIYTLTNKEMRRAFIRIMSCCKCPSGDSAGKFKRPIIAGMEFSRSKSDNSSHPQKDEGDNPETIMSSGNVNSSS

First: Cc1ccc(CC(CCCCCCNCCCP(=O)(O)O)c2cccc(Cl)c2)cc1C (centres unmarked) [3-{[7-(3-Chlorophenyl)-8-(3,4-dimethylphenyl)octyl]amino}propyl)phosphonic acid]
Second: Cc1ccc(CC(CCCCCCCNCCCP(=O)(O)O)c2cccc(Cl)c2)cc1C (centres unmarked) [3-{[8-(3-chlorophenyl)-9-(3,4-dimethylphenyl)nonyl]amino}propylphosphonic acid]
The EC50 of the first is 21-fold higher: 169 nM for the first, 8.18 nM for the second. The second is the more potent here.

Going from `Cc1ccc(CC(CCCCCCCNCCC(=O)O)c2cc(F)cc(F)c2)cc1C` (centres unmarked) [3-{[8-(3,5-Difluorophenyl)-9-(3,4-dimethylphenyl)nonyl]amino}propanoic acid] to `Cc1ccc(CC(CCCCCCCNCCCP(=O)(O)O)c2cc(F)cc(F)c2)cc1C` (centres unmarked) [(3-{[8-(3,5-Difluorophenyl)-9-(3,4-dimethylphenyl)nonyl]amino}propyl)phosphonic acid], the EC50 falls from 45.4 nM to 3.03 nM (15-fold). The second is the more potent here.

Compared with `Cc1ccc(CC(CCCCCCCNCCC(=O)O)c2cccc(Cl)c2)cc1C` (centres unmarked) [3-{[8-(3-Chlorophenyl)-9-(3,4-dimethylphenyl)nonyl]amino}propanoic acid], `Cc1ccc(CC(CCCCCCCCNCCCP(=O)(O)O)c2cccc(Cl)c2)cc1C` (centres unmarked) [(3-{[9-(3-Chlorophenyl)-10-(3,4-dimethylphenyl)decyl]amino}propyl)phosphonic acid] is 1.7-fold lower in EC50: 487 nM for the first, 293 nM for the second.

Compared with `O=C(O)CCNCCCCCCCCC(Cc1ccccc1)c1cccc(Cl)c1` (centres unmarked) [3-{[9-(3-Chlorophenyl)-10-phenyldecyl]amino}propanoic acid], `O=P(O)(O)CCCNCCCCCCCCC(Cc1ccccc1)c1cccc(Cl)c1` (centres unmarked) [(3-{[9-(3-Chlorophenyl)-10-phenyldecyl]amino}propyl)phosphonic acid] is 10-fold lower in EC50: 21.8 nM for the first, 2.13 nM for the second. The second is the more potent here.
